Like-named read-outs stand apart in the source and are kept apart here.
Experiments:
human DGKα [1] = target: T1, human DGKα (Homo sapiens (Human), UniProt P23743); experiment: DGKα LIPGLO assay (extruded liposome substrate, ADP-Glo luminescence); assay type: biochemical; conditions: liposome (LIPGLO) assay; read-out: DGK alpha (liposome assay) IC50
human DGKζ = human DGKζ (Homo sapiens (Human), UniProt Q13574); experiment: DGKζ LIPGLO assay (extruded liposome substrate, ADP-Glo luminescence); assay type: biochemical; conditions: liposome (LIPGLO) assay; read-out: DGK zeta (liposome assay) IC50
[2] = system: human venous whole blood (IFN-γ); experiment: Human whole blood IFN-γ assay; assay type: cell-based; conditions: human whole blood, anti-CD3 plus anti-CD28 stimulation, 24 hours, read-out: IFN-γ Whole Blood EC50
Description: Human venous whole blood (22.5 μL per well), obtained from healthy donors, was pre-treated with compounds for one hour at 37° C. in a humidified 95% air/5% CO2 incubator. The blood was stimulated with 2.5 μL anti-human CD3 and anti-CD28 mAb at a final concentration of 1 μg/mL each for 24 hours at 37° C. IFN-γ in the supernatants was measured using AlphLISA kit (Cat #AL217).

whole blood (pERK) = experiment: pERK Whole Blood; assay type: cell-based
human DGKα [3] = target: T1, human DGKα; experiment: DGKα ADPGLO assay (detergent/lipid micelle substrate); assay type: biochemical; conditions: ADPGLO assay; read-out: DGK alpha ADPGLO IC50
Description: DGK Alpha ADPGLO (Truncated) IC50 (uM)
The detergent/lipid micelle was prepared by combining 15 g phosphatidylserine (Avanti 840035P) and 1 g diacylglycerol (8008110) and dissolving into 150 mL chloroform in a 2 L round bottom flask. Chloroform was removed under high vacuum by rotary evaporation. […] The lipid/detergent solution was split into 5 mL aliquots and stored at −80° C.

T1 sequence (P23743 whole entry, looked up): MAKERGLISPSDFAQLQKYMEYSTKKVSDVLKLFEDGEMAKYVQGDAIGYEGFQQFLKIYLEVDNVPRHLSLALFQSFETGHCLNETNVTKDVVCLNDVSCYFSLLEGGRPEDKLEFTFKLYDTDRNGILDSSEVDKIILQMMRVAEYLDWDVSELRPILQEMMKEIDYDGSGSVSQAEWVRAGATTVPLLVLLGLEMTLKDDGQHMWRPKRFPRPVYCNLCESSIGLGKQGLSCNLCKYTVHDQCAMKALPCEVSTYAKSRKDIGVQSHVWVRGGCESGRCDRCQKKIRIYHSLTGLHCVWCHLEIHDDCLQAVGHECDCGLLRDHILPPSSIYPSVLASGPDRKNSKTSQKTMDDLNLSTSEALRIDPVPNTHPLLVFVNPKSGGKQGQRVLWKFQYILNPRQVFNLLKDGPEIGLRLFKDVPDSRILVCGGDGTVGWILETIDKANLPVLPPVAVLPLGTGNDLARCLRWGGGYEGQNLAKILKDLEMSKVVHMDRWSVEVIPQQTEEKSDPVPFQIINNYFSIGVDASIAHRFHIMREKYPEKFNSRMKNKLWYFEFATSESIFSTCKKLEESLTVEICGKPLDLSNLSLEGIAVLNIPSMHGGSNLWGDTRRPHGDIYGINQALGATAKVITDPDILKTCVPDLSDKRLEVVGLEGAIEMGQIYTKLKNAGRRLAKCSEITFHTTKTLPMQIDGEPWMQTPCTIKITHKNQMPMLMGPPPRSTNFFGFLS
Chain of human DGKζ (Q13574 other isoform, or with tags, fused parts or gaps): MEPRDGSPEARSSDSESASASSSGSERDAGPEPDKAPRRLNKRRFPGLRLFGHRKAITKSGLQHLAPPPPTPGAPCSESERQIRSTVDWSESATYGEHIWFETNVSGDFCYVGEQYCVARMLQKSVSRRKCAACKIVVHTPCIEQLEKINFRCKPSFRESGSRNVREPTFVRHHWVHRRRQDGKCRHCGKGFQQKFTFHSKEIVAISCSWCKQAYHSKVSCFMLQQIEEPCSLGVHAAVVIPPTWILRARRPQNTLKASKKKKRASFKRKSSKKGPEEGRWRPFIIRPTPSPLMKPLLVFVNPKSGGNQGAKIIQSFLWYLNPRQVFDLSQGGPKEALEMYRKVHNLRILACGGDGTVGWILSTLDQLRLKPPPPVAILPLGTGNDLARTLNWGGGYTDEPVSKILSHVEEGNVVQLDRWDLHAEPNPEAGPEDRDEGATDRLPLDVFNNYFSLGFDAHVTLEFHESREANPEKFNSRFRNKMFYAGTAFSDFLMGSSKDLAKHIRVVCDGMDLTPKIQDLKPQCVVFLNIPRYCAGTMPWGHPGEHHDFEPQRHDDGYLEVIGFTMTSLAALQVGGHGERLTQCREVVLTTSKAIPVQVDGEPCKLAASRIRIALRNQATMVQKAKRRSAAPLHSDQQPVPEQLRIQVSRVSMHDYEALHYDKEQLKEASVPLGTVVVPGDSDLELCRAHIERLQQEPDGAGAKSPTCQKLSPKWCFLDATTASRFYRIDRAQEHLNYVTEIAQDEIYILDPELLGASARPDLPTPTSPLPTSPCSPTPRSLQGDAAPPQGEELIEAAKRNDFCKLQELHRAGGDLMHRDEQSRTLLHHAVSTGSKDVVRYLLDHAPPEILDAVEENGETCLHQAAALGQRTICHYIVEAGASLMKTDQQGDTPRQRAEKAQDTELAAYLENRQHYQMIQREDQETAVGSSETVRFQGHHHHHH

SMILES	IC50 (human DGKα [1])	IC50 (human DGKζ)	EC50 ([2]; Homo sapiens, 24 h)	EC50 (whole blood (pERK))	IC50 (human DGKα [3])	EC50 [2]
CC(c1ccc(C(F)(F)F)cc1)N1C[C@H](C)N(c2nc(=O)n(C)c3ccc(Cl)nc23)C[C@H]1CN=[N+]=[N-] (stereo partly drawn) [Example 402, 4-((2S,5S)-5-(Azidomethyl)-2-methyl-4-(1-(4-(trifluoromethyl)phenyl)ethyl)piperazin-1-yl)-6-chloro-1-methylpyrido[3,2-d]pyrimidin-2(1H)-one]	49500 nM	4760 nM	1390 nM	3670 nM	–	–
CCC(c1ccc(OC)cc1)N1C[C@H](C)N(c2nc(=O)n(C)c3ccc(C#N)nc23)C[C@H]1CC (stereo partly drawn) [Example 305, 4-((2S,5R)-5-ethyl-4-(1-(4-methoxyphenyl)propyl)-2-methylpiperazin-1-yl)-1-methyl-2-oxo-1,2-dihydropyrido[3,2-d]pyrimidine-6-carbonitrile]	–	1400 nM	–	3670 nM	62 nM	11700 nM
CCC(c1ccc(C(F)(F)F)cc1)N1C[C@H](CC)N(c2nc(=O)n(C)c3ccc(OC)nc23)C[C@H]1CC (stereo partly drawn) [Example 435, 4-((2S,5R)-2,5-diethyl-4-(1-(4-(trifluoromethyl)phenyl)propyl)piperazin-1-yl)-6-methoxy-1-methylpyrido[3,2-d]pyrimidin-2(1H)-one]	–	5510 nM	–	7290 nM	1900 nM	4160 nM

Molecules with a lower IC50 (human DGKζ), results first:

IC50 (human DGKα [1])	IC50 (human DGKζ)	EC50 ([2]; Homo sapiens, 24 h)	EC50 (whole blood (pERK))	IC50 (human DGKα [3])	EC50 [2]	SMILES
13600 nM	110 nM	1190 nM	2580 nM	–	–	COC(=O)NC[C@@H]1CN(c2nc(=O)n(C)c3ccc(C#N)nc23)[C@@H](C)CN1C(C)c1ccc(C(F)(F)F)cc1 (stereo partly drawn) [Example 405]
–	72 nM	–	100 nM	90 nM	120 nM	CCC(c1ccc(OC(C)C)cc1)N1C[C@H](C)N(c2nc(=O)n(C)c3ccc(C#N)nc23)C[C@H]1CC (stereo partly drawn) [Example 333, 4-((2 S,5R)-5-ethyl-4-(1-(4-isopropoxyphenyl)propyl)-2-methylpiperazin-1-yl)-1-methyl-2-oxo-1,2-dihydropyrido[3,2-d]pyrimidine-6-carbonitrile]
–	39 nM	–	890 nM	62 nM	34 nM	CCC(c1ccc(OCC2CC2)cc1)N1C[C@H](C)N(c2nc(=O)n(C)c3ccc(C#N)nc23)C[C@H]1CC (stereo partly drawn) [Example 308, 4-((2S,5R)-4-(1-(4-(cyclopropylmethoxy)phenyl)propyl)-5-ethyl-2-methylpiperazin-1-yl)-1-methyl-2-oxo-1,2-dihydropyrido[3,2-d]pyrimidine-6-carbonitrile]
